Measurements as given in patent publication US20040005537A1, “Method of identifying toxic agents using differential gene expression” (priority 2000, published 2004).

Assays:
[1] = grouping used to generate the distinguishing gene profiles; cited from earlier work
rat heart tissue = test: GENECALLING differential gene expression analysis after dosing of serotonin modulating agents; format: in vivo, Sprague Dawley rats
Procedure, shortened: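 Rats dosed with serotonin modulating agents, controls given sterile water or canola oil; tissue taken 24 h after the last dose. Total RNA converted to cDNA and profiled by GENECALLING differential expression analysis; fragments changed more than ±1.5-fold were selected.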

CC(C)CC(N(C)C)C1(c2ccc(Cl)cc2)CCC1 (stereo not drawn) [sibutramine]
classification as cardiotoxic or noncardiotoxic serotonin modulating agent [1]: noncardiotoxic
Effects on Transcription Level: Novel gene fragment, 524 bp, 86% SI to mouse F-box protein FBX6b [AF176526] (rat heart tissue; CARDIOTOX 1): +1.3 fold
Effects on Transcription Level: Novel gene fragment, 306 bp, 91% SI to mouse low density lipoprotein receptor related protein 4 [AB013874] (rat heart tissue; CARDIOTOX 2): −1.3 fold
Effects on Transcription Level: Novel gene fragment, 540 bp, 97% SI to mouse skeletal muscle alpha-actin [X03766] (rat heart tissue; CARDIOTOX 3): −1.1 fold
Effects on Transcription Level: Novel gene fragment, 80 bp (rat heart tissue; CARDIOTOX 4): −1.3 fold
Effects on Transcription Level: Novel gene fragment, 957 bp, 99% SI to kidney injury associated moleculer HW036 [V80591] (rat heart tissue; CARDIOTOX 5): −1.0 fold
Effects on Transcription Level: Novel gene fragment, 282 bp, 85% SI to human KIAA1515 protein [AB040948] (rat heart tissue; CARDIOTOX 6): −1.4 fold
Effects on Transcription Level: Novel gene fragment, 405 bp, 88% SI to human 2-oxoglutarate dehydrogenase [D10523] (rat heart tissue; CARDIOTOX 7): −1.4 fold
Effects on Transcription Level: UCP2 (rat heart tissue; CARDIOTOX 8, GenBank AB010743): −1.3 fold
Effects on Transcription Level: Plasma membrane Ca2 + ATPase-isoform 1 (rat heart tissue; CARDIOTOX 9, GenBank J03753): +1.2 fold
Effects on Transcription Level: Novel gene fragment, 242 bp, 97% SI to mouse HSP86 heat-shock protein [X16857] (rat heart tissue; CARDIOTOX 10): +1.4 fold
Effects on Transcription Level: Novel gene fragment, 280 bp, 65% SI to human TRF1-interacting, ankyrin-related ADP-ribose polymerase [AF082556] (rat heart tissue; CARDIOTOX 11): +1.2 fold
Effects on Transcription Level: Novel gene fragment, 348 bp, 88% SI to mouse Sec61 protein complex gamma subunit [U11027] (rat heart tissue; CARDIOTOX 12): +1.4 fold
Effects on Transcription Level: Novel gene fragment 553 bp, 93% SI to mouse Sid329 [AB024984] (rat heart tissue; CARDIOTOX 13): +1.1 fold
Effects on Transcription Level: Kruppel-like transcription factor (rat heart tissue; CARDIOTOX 14, GenBank AB020759): +1.1 fold
Effects on Transcription Level: Ribosomal protein L3 (rat heart tissue; CARDIOTOX 15, GenBank X62166): +1.3 fold
Effects on Transcription Level: Glucose-regulated protein (GRP) 75 (rat heart tissue; CARDIOTOX 16, GenBank S78556): +1.1 fold
Effects on Transcription Level: Immunoglobulin heavy chain binding protein (BiP) (rat heart tissue; CARDIOTOX 17, GenBank M14050): −1.1 fold
Effects on Transcription Level: Membrane-spannining proteoglycan NG2 (rat heart tissue; CARDIOTOX 18, GenBank X56541): −1.1 fold
Effects on Transcription Level: Novel gene fragment, 1294 bp, 96% SI to mouse Sui 1 (elF) homolog [AF129888] (rat heart tissue; CARDIOTOX 19): +1.1 fold
Effects on Transcription Level: Novel gene fragment, 723 bp, 85% SI to human translation initiation factor elF3 p40 subunit [U54559] (rat heart tissue; CARDIOTOX 20): −1.1 fold
Effects on Transcription Level: Novel gene fragment, 1324 bp, 76% SI to human flavoprotein subunit of complex II [D30648] (rat heart tissue; CARDIOTOX 21): +1.4 fold
Effects on Transcription Level: Novel gene fragment, 852 bp, 81% SI to human vacuolar proton-ATPase subunit M9.2 [Y15286] (rat heart tissue; CARDIOTOX 22): +1.2 fold
Effects on Transcription Level: Novel gene fragment, 178 bp, 91% SI to mouse myosin light chain-2 isoform MLC-2a [S70785] (rat heart tissue; CARDIOTOX 23): +1.4 fold
Effects on Transcription Level: Novel gene fragment, 167 bp, 90% SI to mouse Rab20 [X80332] (rat heart tissue; CARDIOTOX 24): +1.0 fold
Effects on Transcription Level: Novel gene fragment, 1070 bp, 80% SI to human muscle-specific protein [AF249873] (rat heart tissue; CARDIOTOX 25): +1.2 fold
Effects on Transcription Level: Novel gene fragment, 1143 bp, 82% SI to human sarcoma amplified sequence (SAS) [U01160] (rat heart tissue; CARDIOTOX 26): +1.3 fold
Effects on Transcription Level: Novel gene fragment, 74 bp,75% SI to human secreted protein [X30160] (from patent database)/[X97578] (from patent database)/potential cytokine) (rat heart tissue; CARDIOTOX 27): −1.3 fold
Effects on Transcription Level: Novel gene fragment, 408 bp, 90% SI to human CGI-07 protein [AF132941] (rat heart tissue; CARDIOTOX 28): −1.0 fold
Effects on Transcription Level: Novel gene fragment, 618 bp, 95% SI to rat progression related cDNA, ZNPE-120 3′ end partial sequence [patent database X90805] (rat heart tissue; CARDIOTOX 29): +1.0 fold
Effects on Transcription Level: Novel gene fragment, 717 bp (rat heart tissue; CARDIOTOX 30): +1.2 fold
Effects on Transcription Level: Novel gene fragment, 546 bp (rat heart tissue; CARDIOTOX 31): +1.3 fold
Effects on Transcription Level: Novel gene fragment, 920 bp, 91% SI to human HSPC061 [AF161546] (rat heart tissue; CARDIOTOX 32): +1.2 fold
Effects on Transcription Level: Novel gene fragment, 203 bp, 92% SI to rabbit sarcoplasmic reticulum glycoprotein [J04480] (rat heart tissue; CARDIOTOX 33): −1.2 fold
Effects on Transcription Level: Novel gene fragment, 178 bp, 68% SI to mouse IgG receptor (beta-Fc-gamma-RII)[M63159] (rat heart tissue; CARDIOTOX 34): +1.4 fold
Effects on Transcription Level: Ribosomal protein L6 (rat heart tissue; CARDIOTOX 35, GenBank X87107): +1.4 fold
Effects on Transcription Level: CAP2 protein (adenylyl cyclase-associated protein 2) (rat heart tissue; CARDIOTOX 36, GenBank U31935): +1.4 fold
Effects on Transcription Level: Alpha-platelet-derived growth factor receptor (rat heart tissue; CARDIOTOX 37, GenBank M63837): −1.1 fold
Effects on Transcription Level: Rab GD1 alpha protein (rat heart tissue; CARDIOTOX 38, GenBank X74402): −1.1 fold
Effects on Transcription Level: PKC-zeta-interacting protein (rat heart tissue; CARDIOTOX 39, GenBank Y08355): −1.2 fold
Effects on Transcription Level: ERK or MAP kinase (rat heart tissue; CARDIOTOX 40, GenBank X65198): +1.4 fold
Effects on Transcription Level: Peroxisomal multifunctional enzyme type II (rat heart tissue; CARDIOTOX 41, GenBank U37486): +1.3 fold
Effects on Transcription Level: HBP23 (heme-binding protein 23 kDa) (rat heart tissue; CARDIOTOX 42, GenBank D30035): +1.3 fold
Effects on Transcription Level: Caveolae-associated protein (rat heart tissue; CARDIOTOX 43, GenBank U90725): −1.0 fold
Effects on Transcription Level: Prenylated rab acceptor 1 (PRA1) (rat heart tissue; CARDIOTOX 44, GenBank AF025506): +1.4 fold
Effects on Transcription Level: Novel gene fragment, 337 bp, 88% SI to rabbit cardiac ryanodine receptor (RyR-2)[U50465] (rat heart tissue; CARDIOTOX 45): −1.3 fold
Effects on Transcription Level: Novel gene fragment, 81 bp, 85% SI to human titin [X90568] (rat heart tissue; CARDIOTOX 46): −1.3 fold
Effects on Transcription Level: Novel gene fragment, 428 bp, 86% SI to human titin [X90568] (rat heart tissue; CARDIOTOX 47): −1.1 fold
Effects on Transcription Level: Novel gene fragment, 374 bp, 88% SI to human titin [X90568] (rat heart tissue; CARDIOTOX 48): −1.2 fold
Effects on Transcription Level: Novel gene fragment, 428 bp, 85% SI to human titin [90568] (rat heart tissue; CARDIOTOX 49): −1.3 fold
Effects on Transcription Level: Novel gene fragment, 1216 bp, 93% SI to mouse mircotubule-associated protein (MAP) 1B protein [AF115776] (rat heart tissue; CARDIOTOX 50): −1.1 fold
Effects on Transcription Level: Novel gene fragment, 1115 bp, 83% SI to human KIAA0549 protein [AB011121] (rat heart tissue; CARDIOTOX 51): −1.4 fold
Effects on Transcription Level: Novel gene fragment, 153 bp (rat heart tissue; CARDIOTOX 52): −1.2 fold
Effects on Transcription Level: Novel gene fragment, 89 bp, 93% SI to human putative glialblastoma cell differentiation-related protein (GBDR1) [AF068195] (rat heart tissue; CARDIOTOX 53): +1.4 fold
Effects on Transcription Level: Rho-associated kinase beta (rat heart tissue; CARDIOTOX 54, GenBank U61266): −1.1 fold
Effects on Transcription Level: Adenylate kinase 3 (rat heart tissue; CARDIOTOX 55, GenBank D13062): +1.4 fold
Effects on Transcription Level: Amyloid beta-peptide binding protein (rat heart tissue; CARDIOTOX 56, GenBank AF049878): +1.3 fold
Effects on Transcription Level: Mitochondrial adenine nuleotide translocator (rat heart tissue; CARDIOTOX 57, GenBank D12771): +1.4 fold
Effects on Transcription Level: Novel gene fragment, 710 bp, 94% SI to mouse chromatin structural protein homolog Supt5 hp (Supt5 h)[U88539] (rat heart tissue; CARDIOTOX 58): +7.5 fold
Effects on Transcription Level: Novel gene fragment, 186 bp, 66% SI to human N-acetylglucosaminyltransferase 1 (GlcNAc-TI)[M55621] (rat heart tissue; CARDIOTOX 60): −1.9 fold
Effects on Transcription Level: Novel gene fragment, 238 bp, 95% SI to mouse MAP kinase-activated protein kinase 2 [X76850] (rat heart tissue; CARDIOTOX 61): −2.8 fold
Effects on Transcription Level: Novel gene fragment, 173 bp, 70% SI to G protein-coupled receptor kinase GRK4 [X97568] (rat heart tissue; CARDIOTOX 62): −5.3 fold
Effects on Transcription Level: Novel gene fragment, 133 bp, 77% SI to human apoptosis related protein hSARP3 [patent database: V19114] (rat heart tissue; CARDIOTOX 63): −2.0 fold
Effects on Transcription Level: Novel gene fragment, 477 bp, 98% SI to peroxisomal phytanoyl-CoA hydroxylase (PHYH) [AF121345] (rat heart tissue; CARDIOTOX 64): +7.0 fold
Effects on Transcription Level: Novel gene fragment, 413 bp, 95% SI to mouse dihydrolipoamide dehydrogenase (Dld) [U73445] (rat heart tissue; CARDIOTOX 65): +1.6 fold
Effects on Transcription Level: Novel gene fragment, 726 bp, 76% SI to human succinate dehydrogenase flavoprotein subunit (SDH) [L21936] (rat heart tissue; CARDIOTOX 66): −3.0 fold
Effects on Transcription Level: Novel gene fragment, 440 bp, 92% SI to mouse cytochrome c oxidase Vllc [X52940] (rat heart tissue; CARDIOTOX 67): +11.5 fold
Effects on Transcription Level: Novel gene fragment, 276 bp, 80% SI to human titin [X90568] (rat heart tissue; CARDIOTOX 68): −6.6 fold
Effects on Transcription Level: Novel gene fragment, 149 bp, 70% SI to human titin [X90568] (rat heart tissue; CARDIOTOX 69): −2.4 fold
